Measured values: patent EP0831877B1, “METABOLIC EFFECTS OF CERTAIN GLUTATHIONE ANALOGS” (TELIK, INC., priority 1995, dated 1996)
pKi: −log10 of the molar value. Values joined by “and” are separate entries in the source; they are usually repeats but may differ in a detail not shown here. Equal values may be shown once. *1 amine or outer side, *2 acyl side, *3 side chain or, on linkers, in order; H or OH if unused. Where a SMILES comes first, the peptide text is derived from it. [ ]: non-standard residue; d: D form. The star is where a group is joined. γGlu = O=C(O)[C@H](CCC(=O)[*:2])N[*:1]; dPhg = N[C@@H](C(=O)O)c1ccccc1; Bn = c1ccc(C*)cc1

Experiments:
[1] = in vitro half-life / metabolism in mouse blood; format: in vitro ADME
[2] = in vitro half-life in human blood; format: in vitro ADME
[3] = tested on: HT-29 (human colon adenocarcinoma) cells; assay: modified clonogenic assay, potentiation of chlorambucil cytotoxicity; format: cell-based
Description: HT-29 (human colon adenocarcinoma) cells were obtained from Dr. Roberto Ceriani (Cancer Research Fund of Contra Costa County, Walnut Creek, CA) and were used in log phase of growth unless otherwise specified. Chlorambucil (CMB) was obtained from Sigma (St. Louis, MO) and was dissolved in 100% ethanol. All GST inhibitors were dissolved in ethanol, DMSO, or water just prior to use. The same amount of solvent added to culture medium served as the vehicle control.
In a modified clonogenic assay for cytotoxicity, cells were suspended at 2 x 10^5 cells/ml in serum-free medium in the presence of vehicle or inhibitor. […] Cells were incubated for 2 hours, then varying doses of CMB were added. At the end of a second 2-hour incubation, cells were diluted to 7.5-10 x 10^3/ml in serum-containing medium and plated in quadruplicate at 200 µl/well in Microtest III microtiter plates.
Plates were incubated for 6 days and assayed by a modified methylene blue method. Briefly, cells were fixed with 1.25% glutaraldehyde in PBS then stained with 0.05% methylene blue in distilled water. Plates were washed several times in distilled water to remove unretained dye and retained dye was resolubilized in 0.03 N HCl. Plates were read at 650 nm in a Molecular Devices Vmax plate reader (Molecular Devices, Redwood City, CA). […] A dose modification factor (DMF), a measure of potentiation of cytotoxicity, was calculated for each inhibitor by dividing the IC50 value of CMB without inhibitor treatment by the IC50 value for CMB with inhibitor treatment.

[4] = tested on: HT-29 cell culture
[5] = target: Human GST P1-1 (Homo sapiens, UniProt P09211); assay: inhibition of GST isoenzyme P1-1 (Ki); format: biochemical; details: determined on unesterified form
Chain of Human GST P1-1 (P09211 2-210 limits assumed): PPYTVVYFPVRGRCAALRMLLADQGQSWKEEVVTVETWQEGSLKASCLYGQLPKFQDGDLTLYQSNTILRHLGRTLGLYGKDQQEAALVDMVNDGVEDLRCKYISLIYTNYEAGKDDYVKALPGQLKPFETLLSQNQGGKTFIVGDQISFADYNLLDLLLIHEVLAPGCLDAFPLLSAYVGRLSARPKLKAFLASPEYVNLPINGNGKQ

[6] = target: T1, GST A1-1 (Homo sapiens, UniProt P08263); assay: inhibition of GST isoenzyme A1-1 (Ki); format: biochemical; details: determined on unesterified form
T1 sequence (P08263 1-222): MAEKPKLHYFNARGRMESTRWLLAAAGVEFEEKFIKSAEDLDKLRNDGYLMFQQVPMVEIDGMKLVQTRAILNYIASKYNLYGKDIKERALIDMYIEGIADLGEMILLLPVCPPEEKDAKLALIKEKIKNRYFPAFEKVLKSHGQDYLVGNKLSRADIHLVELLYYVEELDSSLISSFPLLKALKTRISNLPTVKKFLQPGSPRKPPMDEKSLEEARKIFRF

[7] = target: T2, GST M1a-1a (Homo sapiens, UniProt P09488); assay: inhibition of GST isoenzyme M1a-1a (Ki); format: biochemical; details: determined on unesterified form
T2 sequence (P09488 1-218): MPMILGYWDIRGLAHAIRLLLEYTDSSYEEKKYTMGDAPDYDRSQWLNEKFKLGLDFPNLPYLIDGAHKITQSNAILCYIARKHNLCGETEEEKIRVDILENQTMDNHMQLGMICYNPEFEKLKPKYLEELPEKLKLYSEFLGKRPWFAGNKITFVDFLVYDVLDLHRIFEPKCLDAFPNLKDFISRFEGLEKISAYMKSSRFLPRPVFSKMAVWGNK

[8] = target: T3, GST M2-2 (Homo sapiens, UniProt P28161); assay: inhibition of GST isoenzyme M2-2 (Ki); format: biochemical; details: determined on unesterified form
T3 sequence (P28161 1-218): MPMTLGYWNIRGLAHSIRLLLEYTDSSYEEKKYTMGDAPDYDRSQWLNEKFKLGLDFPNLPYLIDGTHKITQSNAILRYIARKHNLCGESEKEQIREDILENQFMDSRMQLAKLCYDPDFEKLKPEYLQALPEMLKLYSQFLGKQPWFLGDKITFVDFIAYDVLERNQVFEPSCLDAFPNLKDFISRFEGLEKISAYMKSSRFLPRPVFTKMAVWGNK

[9] = tested on: bone marrow GM-CFU; assay: stimulation of bone marrow GM-CFU after administration to mice; format: in vivo, B6D2F1 mice; details: bone marrow harvested 24 hours after administering
Description: In an illustrative assay three B6D2F1 mice were treated with various doses of benzyl PG intraperitoneally.
Mice in the control group were injected with water or saline. Bone marrow cells were harvested 24 hours after drug treatment and added to alpha minimum essential medium (alpha MEM) supplemented with methylcellulose (0.8% w/v), fetal bovine serum (20% v/v), deionized BSA (1% w/v), Pokeweed mitogen-stimulated spleen-cell conditioned medium (PWM-SCCM)^1 (10% v/v) and gentamycin (50 Tg/ml). One ml aliquots were plated (four replicate plates) and incubated for seven days at 37 °C. […] Spleens were removed aseptically from four male B6D2F1 mice enforced through a 200 Tm wire mesh screen to obtain a single cell suspension. Ten ml of the suspension (2-4 X 10^7 cell/ml was added to 90 ml alpha-MEM supplemented with 1% deionized BSA, 50 Tg/ml gentamicin, 0.3% freshly reconstituted pokeweed antigen, 10 µM 2-mercaptoethanol. The mixture was incubated for 5 days at […] in a 5% CO2 atmosphere and the result-ing conditioned medium was centrifuged at 800g for ten minutes and filtered through a 0.22 Tm filter. Aliquots were kept frozen at […] until use.
Bone marrow was harvested 24 hours after administering the compounds and GM-CFU levels measured as described above.

[10] = tested on: HT4-1, a subclone of HT-29; assay: standard clonogenic assay, potentiation of drug toxicity, HT4-1; details: HT4-1 cells
Description: Four chemotherapeutic drugs, chlorambucil, adriamycin, mitomycin C and doxorubicin were used as the toxic agents. In these assays, the cells were seeded at 300 cells/well in 2 ml of medium in 6-well plates in the presence of the compounds used in the invention as the diethyl esters. […] After incubation for 1-2 hours to permit cells to attach, varying doses of the chemotherapeutic agents were added. At least three replicate wells were plated for each test condition and the plates were incubated for two weeks. […] IC50 values were determined for the chemotherapeutic agent in the presence or absence of the compound used in the invention and dose modification factors were calculated by dividing the IC50 value of drug without the compound by the IC50 value of the drug with the compound.

[11] = tested on: HT4-1 tumors; assay: potentiation of melphalan toxicity in vivo, implanted HT4-1 tumors; set-up: species or system Male scid mice; details: group 1: 5 mg/kg melphalan alone, seven days; when control tumors reached 1500 mm^3
Description: Male scid mice were subcutaneously implanted with HT4-1 tumors from donor mice. HT4-1 is a subclone of HT-29, a human colon cancer. When tumors reached approximately 100 mm^3, the mice were randomized into six treatment groups and treated for seven days as follows: • 1. 5 mg/kg melphalan; • 2. 10 mg/kg ethacrynic acid; • 3. […] 5 mg/kg melphalan + 10 mg/kg ethacrynic acid; • 5.
The mice were monitored for weight changes and tumor volumes were determined by measurement with calipers. The tumor growth was monitored until the average tumor size reached 1500 mm^3 for all groups except melphalan with ethacrynic acid.
The results were computed in terms of the tumor volume in the drug treated mice as a percentage of control tumor volume (i.e., in the group administered vehicle alone). In group 1, administered melphalan alone, the tumors were approximately 75% of the volume of controls. […] For group 4 administered a combination of melphalan and ethacrynic acid, the volumes were approximately 35% of control. […] (The volume measurements were taken at the time control tumors reached 1500 mm^3.)

[12] = tested on: bone marrow GM-CFU; details: melphalan 10 mg/kg i.p. alone

CCNC(=O)C(N)CCC(=O)NC(CSCc1ccccc1)C(=O)N[C@@H](C(=O)OCC)c1ccccc1 (stereo partly drawn) [TER300, γE ethyl amide-C(Bz)-R-(-)-ϕG ethyl ester]
half-life compared with TER199 [1]: longer half-lives than TER199 | rate of metabolism [1]: intermediate between that of TER199 and TER278 | half-life, comparison of the three compounds [2]: approximately the same | amount required to achieve equivalent potentiation of chlorambucil, relative to TER199 [3]: Four times as much | DMF for chlorambucil toxicity ([3]; HT-29, 50 µM, mean ±SD of three experiments): 1.45 ± 0.16 | rate of metabolism [4]: intermediate between that of TER199 and TER278

N[C@@H](CCC(=O)N[C@@H](CSCc1ccccc1)C(=O)N[C@@H](C(=O)O)c1ccccc1)C(=O)O [TER117, γE-C(Bz)-ϕG] (γGlu-Cys(Bn)-[dPhg]-OH)
DMF (dose modification factor), Parent Compound ([3]; chlorambucil, HT-29, dose tested 100 µM, mean ±S.D. of 2-3 experiments): 1.08 and 1.08±0.01 | pKi [5]: 6.40 | pKi [6]: 4.70 | pKi [7]: 4.60 | pKi [8]: 4.51 | effect on GM-CFU as a function of dosage, ester/amide forms (Figure 7) [9]: not effective | survival of HT4-1 cells in the presence of the compound alone (Figure 1b) [10]: substantially no effect

N[C@@H](Cc1ccc(N(CCCl)CCCl)cc1)C(=O)O [melphalan, reference compound]
tumor volume as a percentage of control tumor volume [11]: approximately 75% | GM-CFU remaining [12]: 2%
